For test [1], the system named is Plasmodium falciparum chloroquine-susceptible strain D6. Description: In vitro antimalarial drug susceptibility assay (radiolabeled hypoxanthine incorporation), strain D6. It counts as cell-based. The following applies: for Strain D6 IC50: growth inhibition, chloroquine-susceptible strain D6, 66 h incubation; for IC50: Plasmodium falciparum, D6, 66 h.
In test [2] the test system is Plasmodium falciparum chloroquine-resistant strain W2. Nature of the test: microbe, parasite or virus in culture. It counts as cell-based. The following applies: for Strain W2 IC50: growth inhibition, chloroquine-resistant strain W2, 66 h incubation; for IC50: Plasmodium falciparum, W2, 66 h.
For test [3], the system named is D6 and W2 P. falciparum clones. Type of test: cell-based, Plasmodium falciparum. The following applies: for Resistance Index: IC50 (W2)/IC50 (D6) ratio.
Test [4] has as its system Mycobacterium tuberculosis H37Rv (ATCC 27294). Nature of the test: Primary screen, Microplate Alamar Blue Assay (MABA), percent inhibition. Type of test: cell-based. The following applies: primary screening at 6.25 μg/ml; for inhibition at 6.25 µg/mL: Mycobacterium tuberculosis. The method, then: (§1) The activity of the compounds of the present invention against Mycobacterium tuberculosis was determined using the following assays conducted by the National Institute of Allergy and Infectious Diseases (NIAID) supports a TB drug acquisition and screening program, the TAACF.
To determine the percent inhibition the following assay was conducted. Primary screening was conducted at 6.25 μg/ml (or the molar equivalent of highest molecular weight compound in a given series of congeners) against Mycobacterium tuberculosis H37Rv (ATCC 27294) in BACTEC 12B medium using the Microplate Alamar Blue Assay (MABA). See Collins, L. and S. G. Franzblau. 1997. Microplate alamar blue assay versus BACTEC 460 system for high-throughput screening of compounds against Mycobacterium tuberculosis and Mycobacterium avium. Antimicrob Agents Chemother 41:1004-9, which is herein incorporated by reference.
Minimum compound requirements: 1.0 mg.
For orientation: Resazurin is reduced to fluorescent resorufin, in cell work by metabolically active cells.

For a further test, the system named is M. tuberculosis H37Rv. Description: Minimum inhibitory concentration (MIC) in the MABA. It counts as cell-based, Mycobacterium tuberculosis. How it is done: as §1
2. Minimum Inhibitory Concentration (MIC)
The MIC is defined as the lowest concentration effecting a reduction in fluorescence of 90% relative to controls. Minimum compound requirements: 1.0 mg.

The mark [5] stands for this setting: Table 5, Alamar assay, read-out: % Inhib.
Setting [6] is: Mycobacterium tuberculosis, H37RV, Table 5, Alamar assay, M. tuberculosis H37Rv, read-out: MIC.
Setting [7] is: Table 5, Alamar assay, M. tuberculosis H37Rv.
[8] abbreviates: read-out: Strain W2 IC50, growth inhibition, chloroquine-resistant strain W2, 66 h incubation.
The mark [9] stands for this setting: read-out: Strain D6 IC50, growth inhibition, chloroquine-susceptible strain D6, 66 h incubation.

≈ marks a conversion by molar mass, not a printed value. Where “and” joins values, the source holds several entries; their conditions need not be identical. Equal entries are not always repeated. Where two headings read alike, the source gives them in different places.

As to `COC(=O)CCC(C)[C@H]1CCC2C3C(C[C@H](OC(C)=O)[C@@]21C)[C@@]1(C)CCC2(C[C@H]1C[C@H]3OC(C)=O)OOC1(CCC(C)CC1)OO2` (mixture of isomers) [8g/1B08a, Methyl 7α,12α-diacetoxy-5β-cholan-24-oate-3-spiro-6′-(1′,2′,4′,5′-tetraoxacyclohexane)-3′-spiro-1″-((4″R)- and (4″S)-methyl)cyclohexane], in test [1], the “Strain D6 IC50” value turned out to be 0.00648 µg/mL. Besides, the “Strain W2 IC50” value in test [2] amounted to 0.00327 µg/mL. In test [3], the “Resistance Index” value amounted to 0.50. The inhibition at 6.25 µg/mL came to 29% in test [4] (Table 3, H37Rv, read-out: Inhibition (%)) and 29% in test [4] (setting [5]). Further, the MIC in the test with M. tuberculosis H37Rv (Mycobacterium tuberculosis, H37RV, Table 3, H37Rv, read-out: MIC) is > 6.25 µg/mL and > 9.63 µM; with M. tuberculosis H37Rv (setting [6]) it was above 6.25 µg/mL.
Turning to `COC(=O)CCC(C)[C@H]1CCC2C3C(C[C@H](OC(C)=O)[C@@]21C)[C@@]1(C)CCC2(C[C@H]1C[C@H]3OC(C)=O)OOC1(CCC(C)CC1)OO2` (mixture of isomers) [8h/1B08b, Methyl 7α,12α-diacetoxy-5β-cholan-24-oate-3-spiro-6′-(1′,2′,4′,5′-tetraoxacyclohexane)-3′-spiro-1″-((4″R)- and (4″S)-methyl)cyclohexane], the “Strain D6 IC50” value in test [1] came out at 0.01599 µg/mL. The “Strain W2 IC50” value in test [2] amounted to 0.00854 µg/mL. Moreover, the “Resistance Index” value in test [3] turned out to be 0.53. In addition, the “% Inhib” value in test [4] (Table 5, Alamar assay) was 38%. In the test with M. tuberculosis H37Rv (setting [7]), this compound had an MIC above 6.25 µg/mL.
For `CCC1CCC2(CC1)OOC1(CC[C@]3(C)C4C[C@H](OC(C)=O)[C@@]5(C)C(CC[C@@H]5C(C)CCC(=O)OC)C4[C@H](OC(C)=O)C[C@@H]3C1)OO2` (single isomer, unassigned) [8i/1B13a, Methyl 7α,12α-diacetoxy-5β-cholan-24-oate-3-spiro-6′-(1′,2′,4′,5′-tetraoxacyclohexane)-3′-spiro-1″-((4″R or S)- and (4″S or R)-ethyl)cyclohexane], the “Strain D6 IC50” value in test [1] was 0.00446 µg/mL. Moreover, the IC50 in test [2] (setting [8]) was found to be 0.00939 µg/mL (≈ 0.0142 µM). The “Resistance Index” value in test [3] worked out at 2.10. The inhibition at 6.25 µg/mL in test [4] (setting [5]) worked out at 62%. Also, in the test on M. tuberculosis H37Rv (setting [6]), the MIC is above 6.25 µg/mL.
With `CCC1CCC2(CC1)OOC1(CC[C@]3(C)C4C[C@H](OC(C)=O)[C@@]5(C)C(CC[C@@H]5C(C)CCC(=O)OC)C4[C@H](OC(C)=O)C[C@@H]3C1)OO2` (single isomer, unassigned) [8j/1B13b, Methyl 7α,12α-diacetoxy-5β-cholan-24-oate-3-spiro-6′-(1′,2′,4′,5′-tetraoxacyclohexane)-3′-spiro-1″-((4″R or S)- and (4″S or R)-ethyl)cyclohexane], the “Strain D6 IC50” value in test [1] amounted to 0.01173 µg/mL. The “Strain W2 IC50” value in test [2] is 0.01876 µg/mL. Also, the “Resistance Index” value in test [3] is on record as 1.60. Also, the “% Inhib” value in test [4] (Table 5, Alamar assay) worked out at 65%. In the test with M. tuberculosis H37Rv (setting [7]), this compound came in with an MIC above 6.25 µg/mL.
For `COC(=O)CCC(C)[C@H]1CCC2C3C(C[C@H](OC(C)=O)[C@@]21C)[C@@]1(C)CCC2(C[C@H]1C[C@H]3OC(C)=O)OOC1(CCC(C(C)(C)C)CC1)OO2` (single isomer, unassigned) [8k/1B09a, Methyl 7α,12α-diacetoxy-5β-cholan-24-oate-3-spiro-6′-(1′,2′,4′,5′-tetraoxacyclohexane)-3′-spiro-1″-(4″R or S)- and (4″S or R)-t-butyl)cyclohexane], the “Strain D6 IC50” value in test [1] is 0.07426 µg/mL. Further, the IC50 in test [2] (setting [8]) amounted to 0.0364 µg/mL (≈ 0.0527 µM). The “Resistance Index” value in test [3] was 0.49. Further, the “% Inhib” value in test [4] (Table 5, Alamar assay, listed as 8g 1B09a) worked out at 32%. Also, the MIC in the test with M. tuberculosis H37Rv (Mycobacterium tuberculosis, H37RV, Table 5, Alamar assay, M. tuberculosis H37Rv) is above 6.25 µg/mL.
Regarding `COC(=O)CCC(C)[C@H]1CCC2C3C(C[C@H](OC(C)=O)[C@@]21C)[C@@]1(C)CCC2(C[C@H]1C[C@H]3OC(C)=O)OOC1(CCC(C(C)(C)C)CC1)OO2` (single isomer, unassigned) [8l/1B09b, Methyl 7α,12α-diacetoxy-5β-cholan-24-oate-3-spiro-6′-(1′,2′,4′,5′-tetraoxacyclohexane)-3′-spiro-1″-(4″R or S)- and (4″S or R)-t-butyl)cyclohexane], in test [1], the “Strain D6 IC50” value stood at 0.03584 µg/mL. In test [2], the “Strain W2 IC50” value was 0.01919 µg/mL. The “Resistance Index” value in test [3] is given as 0.54. Further, the “times more active than bis(1,1-dioxy-4-tert-butylcyclohexane)” value in test [3] (antimalarial activity versus literature tetraoxane) was “ca. 3.7 times”. Further, the “% Inhib” value in test [4] (Table 5, Alamar assay) is recorded as 0%. For the same compound, the MIC against M. tuberculosis H37Rv (setting [7]) is above 6.25 µg/mL.
As to `CCC1CCC2(CC1)OOC1(CC[C@]3(C)C4C[C@H](OC(C)=O)[C@@]5(C)C(CC[C@@H]5C(C)CCC(=O)O)C4[C@H](OC(C)=O)C[C@@H]3C1)OO2` (single isomer, unassigned) [9i/1C34, 7α,12α-Diacetoxy-5β-cholan-24-oic acid-3-spiro-6′-(1′,2′,4′,5′-tetraoxacyclohexane)-3′-spiro-1″-((4″R or S)-ethyl)cyclohexane], the values for the IC50 in test [1] (setting [9]) and in test [2] (setting [8]) were 0.00374 µg/mL (≈ 0.00576 µM) and 0.00471 µg/mL (≈ 0.00726 µM), respectively. In test [3], the “Resistance Index” value is on record as 1.26. Besides, in test [4] (setting [5]), the inhibition at 6.25 µg/mL came out at 80%. In addition, the MIC in the test with M. tuberculosis H37Rv (setting [6]) was above 6.25 µg/mL.
`CCC1CCC2(CC1)OOC1(CC[C@]3(C)C4C[C@H](OC(C)=O)[C@@]5(C)C(CC[C@@H]5C(C)CCC(N)=O)C4[C@H](OC(C)=O)C[C@@H]3C1)OO2` (single isomer, unassigned) [29/1C40, 7α,12α-Diacetoxy-5β-cholan-24-amide-3-spiro-6′-(1′,2′,4′,5′-tetraoxacyclohexane)-3′-spiro-1″-((4″S or R)-ethyl)cyclohexane]: in test [1], the “Strain D6 IC50” value stood at 0.02012 µg/mL. Moreover, the “Strain W2 IC50” value in test [2] came to 0.00811 µg/mL. For the same compound, the “Resistance Index” value in test [3] came out at 0.40. Moreover, the “% Inhib” value in test [4] (Table 5, Alamar assay) was found to be 100%. Besides, the MIC against M. tuberculosis H37Rv (setting [7]) stood at 3.13 µg/mL (≈ 4.83 µM).
`CCNC(=O)CCC(C)[C@H]1CCC2C3C(C[C@H](OC(C)=O)[C@@]21C)[C@@]1(C)CCC2(C[C@H]1C[C@H]3OC(C)=O)OOC1(CCC(CC)CC1)OO2` (single isomer, unassigned) [31/1C42, N-Ethyl-7α,12α-Diacetoxy-5β-cholan-24-amide-3-spiro-6′-(1′,2′,4′,5′-tetraoxacyclohexane)-3′-spiro-1″-((4″S or R)-ethyl)cyclohexane]: the “Strain D6 IC50” value in test [1] is 0.01564 µg/mL. Moreover, in test [2], the “Strain W2 IC50” value is 0.01222 µg/mL. For the same compound, in test [3], the “Resistance Index” value is listed as 0.78. Also, in test [4] (Table 5, Alamar assay), the “% Inhib” value stood at 83%. In the test on M. tuberculosis H37Rv (setting [7]), this compound registered an MIC above 6.25 µg/mL.
For `CCCNC(=O)CCC(C)[C@H]1CCC2C3C(C[C@H](OC(C)=O)[C@@]21C)[C@@]1(C)CCC2(C[C@H]1C[C@H]3OC(C)=O)OOC1(CCC(CC)CC1)OO2` (single isomer, unassigned) [32/1C43, N-(n-Propyl)-7α,12α-Diacetoxy-5β-cholan-24-amide-3-spiro-6′-(1′,2′,4′,5′-tetraoxacyclohexane)-3′-spiro-1″-((4″S or R)-ethyl)cyclohexane], the “Strain D6 IC50” value in test [1] was 0.0622 µg/mL. The “Strain W2 IC50” value in test [2] came to 0.08464 µg/mL. Also, in test [3] (D6 and W2 clones, Table 2), the “antimalarial activity in words” value is “inactive”. In addition, in test [3], the “Resistance Index” value is 1.36. In test [4] (Table 5, Alamar assay), the “% Inhib” value is recorded as 71%. Further, the MIC with M. tuberculosis H37Rv (setting [7]) was above 6.25 µg/mL.
Regarding `CCN(CC)CCCC(C)Nc1ccnc2cc(Cl)ccc12` (stereo not drawn) [Chloroquine, reference compound], the IC50 turned out to be 0.00371 µg/mL (≈ 0.0116 µM) in test [1] (read-out: Strain D6 IC50) and 0.0883 µg/mL (≈ 0.276 µM) in test [2] (read-out: Strain W2 IC50).
As to `OC(c1cc(C(F)(F)F)nc2c(C(F)(F)F)cccc12)C1CCCCN1` (stereo not drawn) [Mefloquine, reference compound], the IC50 in test [1] (setting [9]) was determined as 0.0106 µg/mL (≈ 0.0281 µM).
On to “Methyl 7α,12α-diacetoxy-5β-cholan-24-oate-3-spiro-6′-(1′,2′,4′,5′-tetraoxacyclohexane)-3′-spiro-1″-((4″R or S)- and (4″S or R)-ethoxycarbonyl)cyclohexane [Compound 1B12a]”, for which the “Strain D6 IC50” value in test [1] was 0.00672 µg/mL. The “Strain W2 IC50” value in test [2] stood at 0.01256 µg/mL. Also, the “Resistance Index” value in test [3] is 1.87.
In the case of “Methyl 7α,12α-diacetoxy-5β-cholan-24-oate-3-spiro-6′-(1′,2′,4′,5′-tetraoxacyclohexane)-3′-spiro-1″-((4″R or S)- and (4″S or R)-ethoxycarbonyl)cyclohexane [Compound 1B12b]”, the “Strain D6 IC50” value in test [1] is 0.03101 µg/mL. Further, the “Strain W2 IC50” value in test [2] is 0.05492 µg/mL. Also, the “Resistance Index” value in test [3] was 1.77.

Broadly, the MIC is the least concentration at which growth counts as inhibited. As a reminder, the IC50 is the midpoint of a concentration-inhibition curve.

The values are drawn from US6906098B2, “Mixed steroidal 1,2,4,5-tetraoxane compounds and methods of making and using thereof” (priority 2002, dated 2005).
